Test results taken from ChEMBL document CHEMBL4392822, “HSP60/10 chaperonin systems are inhibited by a variety of approved drugs, natural products, and known bioactive molecules” (Bioorg Med Chem Lett, 2019).
pIC50: −log10 of the molar value. Where a name gives a salt, the structure may show the parent alone.

Experiments:
[1] = biological target: HSP60/HSP10 (Homo sapiens, UniProt P10809);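 note: His-tagged human HSP60 with HSP10 refolding denatured MDH, read as MDH activity on mesoxalate by malachite green spectrometry, inhibition of refolding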
Chain of HSP60/HSP10 (P10809 whole entry): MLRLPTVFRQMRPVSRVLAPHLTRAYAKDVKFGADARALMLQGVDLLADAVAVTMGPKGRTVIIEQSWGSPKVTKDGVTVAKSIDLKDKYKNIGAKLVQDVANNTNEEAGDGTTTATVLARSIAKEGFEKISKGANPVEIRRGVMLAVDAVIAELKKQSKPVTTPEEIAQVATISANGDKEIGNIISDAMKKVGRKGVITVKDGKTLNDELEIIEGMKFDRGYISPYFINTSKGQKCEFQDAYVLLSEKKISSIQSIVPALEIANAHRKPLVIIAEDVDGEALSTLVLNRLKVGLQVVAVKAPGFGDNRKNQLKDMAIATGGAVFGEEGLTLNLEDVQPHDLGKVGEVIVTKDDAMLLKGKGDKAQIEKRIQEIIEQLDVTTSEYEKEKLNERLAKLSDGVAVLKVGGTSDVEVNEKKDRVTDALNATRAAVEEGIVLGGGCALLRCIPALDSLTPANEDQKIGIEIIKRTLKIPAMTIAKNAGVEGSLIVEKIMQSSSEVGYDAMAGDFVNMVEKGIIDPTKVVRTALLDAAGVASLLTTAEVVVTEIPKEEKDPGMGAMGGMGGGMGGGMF
Chain of HSP60/HSP10 (P61604 whole entry, further chain): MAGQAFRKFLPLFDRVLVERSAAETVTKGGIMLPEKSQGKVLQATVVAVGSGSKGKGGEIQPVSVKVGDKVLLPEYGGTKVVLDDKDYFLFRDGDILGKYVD
Description: Inhibition of human N-terminal octa-His-tagged HSP60 expressed in Escherichia coli Rosetta(DE3) pLysS/human HSP10 expressed in Escherichia coli Rosetta(DE3) assessed as reduction in HSP60/HSP10-mediated denatured MDH refolding by measuring MDH enzyme activity using sodium mesoxalate as substrate after 40 to 60 mins by malachite green dye based spectrometric analysis

[2] = biological target: T1, Thiosulfate sulfurtransferase (Homo sapiens, UniProt Q16762); format: ADME;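 note: native rhodanese of unspecified species, enzyme activity read after 45 min by spectrophotometric detection of Fe(SCN)3 colour, IC50 reflects activity reduction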
T1 sequence (Q16762 whole entry): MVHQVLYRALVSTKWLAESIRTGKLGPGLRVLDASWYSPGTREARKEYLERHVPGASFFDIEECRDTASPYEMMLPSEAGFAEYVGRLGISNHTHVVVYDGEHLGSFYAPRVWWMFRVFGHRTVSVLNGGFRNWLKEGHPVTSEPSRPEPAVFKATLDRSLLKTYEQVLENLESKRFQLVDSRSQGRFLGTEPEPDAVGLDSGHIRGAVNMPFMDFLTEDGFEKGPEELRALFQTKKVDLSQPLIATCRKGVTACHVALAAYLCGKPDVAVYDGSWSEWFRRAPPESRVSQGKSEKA
Description: Inhibition of native rhodanese (unknown origin) assessed as reduction in rhodanese enzyme activity after 45 mins by Fe(SCN)3 dye based spectrometric analysis

[3] = biological target: T2, E. coli GroEL/ES (Escherichia coli, UniProt P0A6F5)
T2 sequence (P0A6F5 whole entry, looked up): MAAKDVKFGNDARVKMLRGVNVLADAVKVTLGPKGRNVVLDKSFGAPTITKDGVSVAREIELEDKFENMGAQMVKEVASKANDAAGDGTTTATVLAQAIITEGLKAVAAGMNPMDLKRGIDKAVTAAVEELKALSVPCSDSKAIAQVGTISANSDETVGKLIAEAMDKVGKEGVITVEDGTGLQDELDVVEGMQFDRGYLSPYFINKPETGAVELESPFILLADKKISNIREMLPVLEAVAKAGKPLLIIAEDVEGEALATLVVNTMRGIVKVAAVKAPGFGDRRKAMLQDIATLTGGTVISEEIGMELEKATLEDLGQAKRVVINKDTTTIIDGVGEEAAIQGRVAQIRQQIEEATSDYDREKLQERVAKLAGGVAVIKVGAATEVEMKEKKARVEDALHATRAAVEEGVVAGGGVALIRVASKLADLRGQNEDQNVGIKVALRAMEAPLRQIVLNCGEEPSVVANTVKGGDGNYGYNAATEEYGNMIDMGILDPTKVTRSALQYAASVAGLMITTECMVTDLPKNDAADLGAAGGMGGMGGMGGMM
Description: Inhibition of Escherichia coli GroEL expressed in Escherichia coliDH5alpha/Escherichia coli GroES expressed in Escherichia coli BL21 (DE3) assessed as reduction in GroEL/GroES-mediated denatured soluble pig heart MDH refolding by measuring MDH enzyme activity using sodium mesoxalate as substrate after 20 to 40 mins by malachite green dye based spectrometric analysis

[4] = biological target: T2, E. coli GroEL/ES; remark: listed apart in the source
Description: Inhibition of Escherichia coli GroEL expressed in Escherichia coli DH5alpha/Escherichia coli GroES expressed in Escherichia coli BL21 (DE3) assessed as reduction in GroEL/GroES-mediated denatured rhodanese refolding by measuring rhodanese enzyme activity after 45 mins by Fe(SCN)3 dye based spectrometric analysis

[5] = biological target: Chaperonin GroEL (Escherichia coli (strain K12), UniProt P0A6F5);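 note: inhibition of GroEL ATPase activity with ATP as substrate, 60 min incubation, spectrometric read-out, recombinant enzyme produced in Escherichia coli DH5alpha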
Chain of Chaperonin GroEL (P0A6F5 whole entry): as the sequence (P0A6F5 whole entry, looked up) above
Description: Inhibition of ATPase activity of Escherichia coli GroEL expressed in Escherichia coliDH5alpha incubated for 60 mins using ATP by spectrometric analysis

Molecule	pIC50 [1]	pIC50 [2]	pIC50 [3]	pIC50 [4]	pIC50 [5]
CCOc1nc2cccc(C(=O)O)c2n1Cc1ccc(-c2ccccc2-c2nnn[nH]2)cc1	< 4.00	< 4.00	< 4.00	< 3.60	–
COc1cc(NC(C)CCCN)c2ncccc2c1 (centres undefined) [PRIMAQUINE]	< 4.00	5.54	–	–	–
O=C1c2ccccc2C(=O)c2c(O)c(O)cc(O)c21 [PURPURIN]	4.64	5.64	4.82	5.40	< 3.60
COc1ccc(C(=O)/C=C/c2ccccc2)cc1 [4'-METHOXYCHALCONE]	4.80	< 4.00	4.89	4.52	< 3.60
CC1=NCCc2c1[nH]c1cc(O)ccc21 [HARMALOL]	< 4.00	–	< 4.00	–	< 3.60
Cc1cc(-c2ccc(/N=N/c3ccc4c(S(=O)(=O)O)cc(S(=O)(=O)O)c(N)c4c3O)c(C)c2)ccc1/N=N/c1ccc2c(S(=O)(=O)O)cc(S(=O)(=O)O)c(N)c2c1O [EVANS BLUE]	6.77	5.06	7.41	7.06	3.79
COc1cc(/C=C/C(=O)CC(=O)/C=C/c2ccc(O)c(OC)c2)ccc1O [CURCUMIN]	5.08	4.25	5.51	5.54	< 3.60
Oc1ccc(Cl)cc1Cc1cc(Cl)ccc1O [DICHLOROPHEN]	4.77	< 4.00	4.62	4.18	< 3.60
O=C(/C=C/c1ccccc1)c1ccc(O)cc1 [4'-HYDROXYCHALCONE]	4.70	< 4.00	4.68	4.25	< 3.60
Oc1c(Cl)cc(Cl)c(Cl)c1Cc1c(O)c(Cl)cc(Cl)c1Cl [HEXACHLOROPHENE]	5.89	4.29	5.85	5.33	3.82
C=C1CC[C@H](O)C/C1=C/C=C1\CCC[C@]2(C)[C@@H]([C@H](C)/C=C/[C@H](C)C(C)C)CC[C@@H]12 [ERGOCALCIFEROL]	4.35	–	4.55	4.39	< 3.60
CC[n+]1c(-c2ccccc2)c2cc(N)ccc2c2ccc(N)cc21 [HOMIDIUM BROMIDE]	< 4.00	6.08	< 4.00	5.62	< 3.60
Cc1cc2c(C(C)C)c(O)c(O)c(C=O)c2c(O)c1-c1c(C)cc2c(C(C)C)c(O)c(O)c(C=O)c2c1O	5.92	4.96	6.18	6.37	< 3.60
CCCCCCCCCc1ccc(O)cc1 [4-NONYLPHENOL]	5.02	4.14	4.92	4.54	< 3.60
CC1=C(/C=C/C(C)=C/C=C/C(C)=C/C(=O)O)C(C)(C)CCC1 [TRETINOIN]	5.28	–	5.17	4.68	< 3.60
CN(C)c1ccc2nc3ccc(=[N+](C)C)cc-3sc2c1 [METHYLENE BLUE]	< 4.00	5.21	–	–	–
O=C(O[C@@H]1Cc2c(O)cc(O)cc2O[C@@H]1c1cc(O)c(O)c(O)c1)c1cc(O)c(O)c(O)c1 [EPIGALOCATECHIN GALLATE]	5.64	5.14	6.44	6.24	< 3.60
CCCCCCCCCCCCCCCCC(C(=O)O)C(O)(CC(=O)O)C(=O)O (centres undefined)	5.40	< 4.00	5.46	5.05	< 3.60
O=C(OC[C@H]1O[C@@H](OC(=O)c2cc(O)c(O)c(OC(=O)c3cc(O)c(O)c(O)c3)c2)[C@H](OC(=O)c2cc(O)c(O)c(OC(=O)c3cc(O)c(O)c(O)c3)c2)[C@@H](OC(=O)c2cc(O)c(O)c(OC(=O)c3cc(O)c(O)c(O)c3)c2)[C@@H]1OC(=O)c1cc(O)c(O)c(OC(=O)c2cc(O)c(O)c(O)c2)c1)c1cc(O)c(O)c(OC(=O)c2cc(O)c(O)c(O)c2)c1 [TANNIC ACID]	5.42	4.41	6.06	6.00	3.86
O=c1c(O)c(-c2ccc(O)c(O)c2)oc2c(O)c(O)cc(O)c12 [GOSSYPETIN]	5.12	6.48	5.68	6.41	< 3.60

Molecule	pIC50 [1]	pIC50 [2]	pIC50 [3]	pIC50 [4]	pIC50 [5]
CC(C)(C)NCC(O)c1ccc(O)c(CO)c1 (centres undefined) [ALBUTEROL]	< 4.00	< 4.00	< 4.00	< 3.60	–
CC(=O)O[C@H]1C(=O)[C@@]2(C)[C@H]([C@H](OC(=O)c3ccccc3)[C@]3(O)C[C@H](OC(=O)[C@H](O)[C@@H](NC(=O)c4ccccc4)c4ccccc4)C(C)=C1C3(C)C)[C@]1(OC(C)=O)CO[C@@H]1C[C@@H]2O [PACLITAXEL]	< 4.00	–	4.25	3.94	< 3.60
CC(COc1ccccc1)N(CCCl)Cc1ccccc1 (centres undefined) [PHENOXYBENZAMINE HYDROCHLORIDE]	4.11	< 4.00	4.40	3.89	< 3.60
Nc1ccc(O)c(C(=O)O)c1 [MESALAMINE]	–	6.55	–	–	–
Cc1cc2nc3c(=O)[nH]c(=O)nc-3n(C[C@H](O)[C@H](O)[C@H](O)COP(=O)(O)O)c2cc1C [RIBOFLAVIN 5'-PHOSPHATE SODIUM]	–	6.42	4.07	6.11	< 3.60
C[C@H](CCC(=O)O)[C@H]1CC[C@H]2[C@@H]3CC[C@@H]4C[C@H](O)CC[C@]4(C)[C@H]3CC[C@]12C [LITHOCHOLIC ACID]	5.00	< 4.00	–	4.23	< 3.60
CC1(C)CCC2=C(O1)c1ccccc1C(=O)C2=O [LAPACHONE]	5.68	6.92	5.89	6.23	< 3.60
CCc1oc2ccccc2c1C(=O)c1cc(Br)c(O)c(Br)c1 [BENZBROMARONE]	5.04	< 4.00	4.74	4.31	< 3.60
CC[C@H](C)C1O[C@]2(C=C[C@@H]1C)C[C@@H]1C[C@@H](C/C=C(\C)[C@@H](O[C@H]3C[C@H](OC)[C@@H](O[C@H]4C[C@H](OC)[C@H](NC(C)=O)[C@H](C)O4)[C@H](C)O3)[C@@H](C)/C=C/C=C3\CO[C@@H]4[C@H](O)C(C)=C[C@@H](C(=O)O1)[C@]34O)O2 (some centres undefined)	4.77	< 4.00	4.96	4.42	< 3.60
Cc1ccc(C(=O)Nc2ccc(S(=O)(=O)O)c3cc(S(=O)(=O)O)cc(S(=O)(=O)O)c23)cc1NC(=O)c1cccc(NC(=O)Nc2cccc(C(=O)Nc3cc(C(=O)Nc4ccc(S(=O)(=O)O)c5cc(S(=O)(=O)O)cc(S(=O)(=O)O)c45)ccc3C)c2)c1 [SURAMIN]	5.14	< 4.00	–	–	< 3.60
CC[C@H](C)[C@H]1O[C@]2(C=C[C@@H]1C)C[C@@H]1C[C@@H](C/C=C(\C)[C@@H](O[C@H]3C[C@H](OC)[C@@H](O[C@H]4C[C@H](OC)[C@@H](O)[C@H](C)O4)[C@H](C)O3)[C@@H](C)/C=C/C=C3\CO[C@@H]4[C@H](O)C(C)=C[C@@H](C(=O)O1)[C@]34O)O2 [ABAMECTIN COMPONENT B1A]	4.82	< 4.00	5.01	4.49	< 3.60
C=C(CC)C(=O)c1ccc(OCC(=O)O)c(Cl)c1Cl [ETHACRYNIC ACID]	5.07	< 4.00	5.28	5.33	< 3.60
O=c1c(O)c(-c2ccc(O)cc2O)oc2cc(O)cc(O)c12 [MORIN]	4.96	4.24	5.07	5.28	< 3.60
IVERMECTIN	–	< 4.00	–	–	< 3.60
C=C(NC(=O)C(=C)NC(=O)c1csc(C2=N[C@@H]3c4csc(n4)[C@H]4NC(=O)c5csc(n5)[C@H]([C@](C)(O)[C@@H](C)O)NC(=O)[C@H]5CSC(=N5)/C(=C/C)NC(=O)[C@H]([C@@H](C)O)NC(=O)c5csc(n5)[C@]3(CC2)NC(=O)[C@H](C)NC(=O)C(=C)NC(=O)[C@H](C)NC(=O)[C@H]([C@@H](C)CC)N[C@@H]2C=Cc3c([C@H](C)O)cc(nc3[C@H]2O)C(=O)O[C@@H]4C)n1)C(N)=O [THIOSTREPTON]	4.89	< 4.00	5.17	–	< 3.60
Cc1cc2nc3c(=O)[nH]c(=O)nc-3n(C[C@H](O)[C@H](O)[C@H](O)CO)c2cc1C [RIBOFLAVIN]	< 4.00	–	< 4.00	4.74	< 3.60
CCCCN1CCC(COC(=O)c2cc(Cl)c(N)c3c2OCCO3)CC1	< 4.00	< 4.00	< 4.00	< 3.60	–
COc1cc(-c2ccc(/N=N/c3ccc4c(S(=O)(=O)O)cc(S(=O)(=O)O)c(N)c4c3O)c(OC)c2)ccc1/N=N/c1ccc2c(S(=O)(=O)O)cc(S(=O)(=O)O)c(N)c2c1O	–	5.07	5.41	5.70	–
Cc1cc(C(C#N)c2ccc(Cl)cc2)c(Cl)cc1NC(=O)c1cc(I)cc(I)c1O (centres undefined) [CLOSANTEL]	5.55	< 4.00	–	5.70	< 3.60
O=C1C=C2CC3(O)COc4c(ccc(O)c4O)C3=C2C=C1O (centres undefined) [HEMATEIN]	5.44	4.92	5.74	–	< 3.60
